Source: publication PMC6277555, “Short Symmetric-End Antimicrobial Peptides Centered on β-Turn Amino Acids Unit Improve Selectivity and Stability” (Frontiers in Microbiology, 2018)
No end group written: not given here.

What was measured:
E. coli UB1005 = assay type: cell-based, Escherichia coli
Procedure: (§1) The minimal inhibitory concentration (MIC) was determined according to a previously described method ([Chou et al., 2016]). Bacteria were cultured overnight to mid-log phase in MHB at 37°C and then diluted to give final concentrations ranging from 2 × 10^5 to 7 × 10^5 CFU/mL. Then, 50 μL of serial twofold dilutions of the peptides were added to each well in 96-well microtiter plates with a mixed solution containing 0.01% acetic acid and 0.2% bovine serum albumin (BSA, Sigma) was used to dissolve and dilute the peptides. Then, equal amounts of bacterial aliquots were incubated with the above peptide solution for 18–24 h at 37°C. The experiment was performed in triplicate using three replicates for each peptide and each bacterium. The broth was employed as a negative control and the broth with microbial cells was used as a positive control. The lowest concentration of peptide that prevented visible turbidity was defined as the MIC.

E. coli ATCC25922 = assay type: cell-based, Escherichia coli
Procedure: as §1, with “18-24” for “18–24”, “MIC. The condition sensitivity of peptides was tested in an MIC assay in different environments, including salt sensitivity, thermal sensitivity and different pH values similar to our previous method ([[…] et al., 2008]; [Ma et al., 2012]). […] For the heat resistance experiments, the peptides were incubated at 100°C for 30 min and cooled on ice for 10 min. […] The determination methods for these MIC assays were same as described above. To test the effects of serum on the antimicrobial activities of the peptides, human serum was dissolved in MHB to reach final concentrations of 25 and 50%. The determination methods for these MIC assays were same as described above.” for “MIC.”

[1] = RP-HPLC retention time as measure of relative hydrophobicity; assay type: physicochemical; conditions: analytical RP-HPLC; hydrophobicity increases with retention time
Procedure: These peptides' […] identified via matrix-assisted laser desorption/ionization time-of-flight mass spectrometry (MALDI-TOF MS, Linear Scientific Inc., United States), using α-cyano-4-hydroxycinnamic acid as the matrix. […] Quantitative peptides were dissolved in deionized water and stored at -20°C before the assessments. The rest of the peptides were stored as powders at -20°C to prevent peptide degradation. The structures and molecular weights of the peptides were verified by MALDI-TOF MS. […] The relative hydrophobicity of the symmetric-end peptides was reliably reflected by their different HPLC retention times, and the hydrophobicity increased with increasing HPLC retention times ([Lee et al., 2014]; [Zhu et al., 2014]). The HPLC retention times for […]

S. aureus ATCC 29213 = assay type: cell-based, Staphylococcus aureus
Procedure: as §1, with “18-24” for “18–24”, “MIC. The condition sensitivity of peptides was tested in an MIC assay in different environments, including salt sensitivity, thermal sensitivity and different pH values similar to our previous method ([[…] et al., 2008]; [Ma et al., 2012]). […] For the heat resistance experiments, the peptides were incubated at 100°C for 30 min and cooled on ice for 10 min. […] The determination methods for these MIC assays were same as described above. To test the effects of serum on the antimicrobial activities of the peptides, human serum was dissolved in MHB to reach final concentrations of 25 and 50%. The determination methods for these MIC assays were same as described above.” for “MIC.”

S. pullorum C79-13 = assay type: cell-based, Salmonella pullorum
Procedure: as §1

S. aureus ATCC 43300 = assay type: cell-based, Staphylococcus aureus
Procedure: as §1

S. faecalis ATCC 29212 = assay type: cell-based, Streptococcus faecalis
Procedure: as §1

B. subtilis CMCC 63501 = assay type: cell-based, Bacillus subtilis
Procedure: as §1

[2] = test system: S. epidermidis ATCC 12228; assay type: cell-based, Staphylococcus epidermidis
Procedure: as §1

S. typhimurium ATCC 7731 = assay type: cell-based, Salmonella entericaserovar Typhimurium
Procedure: as §1

B. pyocyaneum ATCC 27853 = assay type: cell-based, Bacterium pyocyaneum
Procedure: as §1

hRBCs = assay: Hemolytic activity; assay type: cell-based, human; conditions: peptide concentration resulting in 5% hemolysis of hRBCs; PBS, 1 h, 37°C
Procedure: (§2) The hemolytic activity of the peptides was detected using a previously described modified method ([Wang et al., 2015]). One milliliter of fresh hRBCs was obtained from a healthy donor (Zhihua Wang, Harbin, China) in a polycarbonate tube containing heparin. The collected hRBCs were centrifuged at 1000 × g for 5 min at 4°C and resuspended in PBS buffer (pH 7.2). The hRBCs were washed three times and then incubated with an equal volume of the respective peptide dissolved in PBS for 1 h at 37°C. Then, the hRBC suspension was placed into a 96-well microtiter plater with 50 μL of tested peptide solution at different concentrations and the mixture was incubated for 1 h at 37°C. […] The minimum hemolytic concentrations (MHCs) were defined as the peptide concentrations resulting in 5% hemolysis.

[3] = test system: Gram-negative and Gram-positive bacterial strains; assay: Geometric mean of MICs and therapeutic index; assay type: cell-based
Procedure: as §2, §1

IHKFWRGGRWFKHI-NH2 [GG]
MIC (E. coli UB1005): 8 µM
MIC (E. coli ATCC25922; ATCC25922): 8 µM
Retained time (HPLC retention time) [1]: 10.24 min
MIC (S. aureus ATCC 29213; ATCC 29213): 16 µM
MIC (S. pullorum C79-13): 8 µM
MIC (S. aureus ATCC 43300): 32 µM
MIC (S. faecalis ATCC 29212): 32 µM
MIC (B. subtilis CMCC 63501): 16 µM
MIC [2]: 32 µM
MIC (S. typhimurium ATCC 7731): 64 µM
MIC (B. pyocyaneum ATCC 27853): 16 µM

IHKFWRPGRWFKHI-NH2 [PP]
MIC (E. coli UB1005): 4 µM
MIC (E. coli ATCC25922; ATCC25922): 8 µM
MIC, CaCl2 (E. coli ATCC25922; ATCC25922): 4 µM
MIC, Control (E. coli ATCC25922; ATCC25922): 8 µM
MIC, FeCl3 (E. coli ATCC25922; ATCC25922): 4 µM
MIC, Heat (100°C) (E. coli ATCC25922; ATCC25922): 8 µM
MIC, KCl (E. coli ATCC25922; ATCC25922): 4 µM
MIC, MgCl2 (E. coli ATCC25922; ATCC25922): 2 µM
MIC, NH4Cl (E. coli ATCC25922; ATCC25922): 2 µM
MIC, NaCl (E. coli ATCC25922; ATCC25922): 8 µM
MIC, ZnCl2 (E. coli ATCC25922; ATCC25922): 2 µM
MIC, pH 4.0 (E. coli ATCC25922; ATCC25922, pH 4): 8 μM
MIC, pH 6.0 (E. coli ATCC25922; ATCC25922, pH 6): 8 μM
MIC, pH 8.0 (E. coli ATCC25922; ATCC25922, pH 8): 16 μM
MIC, pH 10.0 (E. coli ATCC25922; ATCC25922, pH 10): 8 μM
MIC (S. aureus ATCC 29213; ATCC 29213): 16 µM
MIC, CaCl2 (S. aureus ATCC 29213; ATCC 29213): 32 µM
MIC, Control (S. aureus ATCC 29213; ATCC 29213): 16 µM
MIC, FeCl3 (S. aureus ATCC 29213; ATCC 29213): 8 µM
MIC, Heat (100°C) (S. aureus ATCC 29213; ATCC 29213): 16 µM
MIC, KCl (S. aureus ATCC 29213; ATCC 29213): 16 µM
MIC, MgCl2 (S. aureus ATCC 29213; ATCC 29213): 16 µM
MIC, NH4Cl (S. aureus ATCC 29213; ATCC 29213): 8 µM
MIC, NaCl (S. aureus ATCC 29213; ATCC 29213): 128 µM
MIC, ZnCl2 (S. aureus ATCC 29213; ATCC 29213): 4 µM
MIC, pH 4.0 (S. aureus ATCC 29213; ATCC 29213, pH 4): 16 μM
MIC, pH 6.0 (S. aureus ATCC 29213; ATCC 29213, pH 6): 16 μM
MIC, pH 8.0 (S. aureus ATCC 29213; ATCC 29213, pH 8): 16 μM
MIC, pH 10.0 (S. aureus ATCC 29213; ATCC 29213, pH 10): 16 μM
MIC (S. pullorum C79-13): 4 µM
MHC (minimum hemolytic concentration) (hRBCs): >128 µM
MIC (S. aureus ATCC 43300): 16 µM
MIC (S. faecalis ATCC 29212): 8 µM
MIC (B. subtilis CMCC 63501): 8 µM
MIC [2]: 16 µM
GM (geometric mean of the MIC values) ([3]; all ten tested strains): 8.0 µM
Therapeutic index ([3]; from MHC and GM): 32.0
MIC (S. typhimurium ATCC 7731): 8 µM
MIC (B. pyocyaneum ATCC 27853): 4 µM
